# Measured values reported in US12310364B2, “Safened compositions comprising pyridine carboxylate herbicides and cloquintocet” (Corteva Agriscience LLC, priority 2018, dated 2025).
# What was measured:
# Assay type in all cases: in vivo
# [1] = tested on: Matricaria inodora (false chamomile), MATIN; assay: Greenhouse postemergence trial, visual injury on false chamomile
# Text: (§1) Greenhouse Trial Methodology—Evaluation of Postemergence Herbicidal Safening in Crops
# (§2) Seeds of the desired test plant species were planted in a 90:10% v/v (volume/volume) mixture of PRO-MIX® BX (Premier Tech Horticulture, Quakertown, PA, USA) and PROFILE® GREENS GRADE™ (Profile Products LLC, Buffalo Grove, IL, USA) planting mixture, which typically has a pH of 5.2 to 6.2 and an organic matter content of at least 50 percent, in plastic pots with a surface area of 103.2 square centimeters (cm^2). When required to ensure good germination and healthy plants, a fungicide treatment and/or other chemical or physical treatment was applied. The plants were grown for 7-36 days (d) in a greenhouse with an approximate 14-hour (h) photoperiod which was maintained at about 23° C. during the day and 22° C. during the night. Nutrients and water were added on a regular basis and supplemental lighting was provided with overhead metal halide 1000-Watt lamps as necessary. The plants were employed for testing when they reached the second or third true leaf stage.
# (§3) Emulsifiable concentrates of each of each pyridine carboxylate herbicide (Compound A or Compound B) were prepared at 100 grams acid equivalent per liter (g ae/L). An aliquot of each emulsifiable concentrate was placed in a 25 mL glass vial and diluted with an aqueous mixture of 1.25% (v/v) ACTIROB® B esterified rapeseed oil (Bayer Crop Science, Research Triangle Park, NC, USA) or MSO® Concentrate with LECI-TECH® methylated soybean oil (Loveland Products, Loveland, CO, USA) to obtain concentrated stock solutions at the highest application rate for each herbicide, based upon a 12 milliliter (mL) application volume at a rate of 187 liters per hectare (L/ha). The concentrated stock solutions were further diluted with an aqueous mixture of 1.25% v/v ACTIROB® B or MSO® Concentrate with LECI-TECH® to obtain stock solutions at reduced application rates for each herbicide. Spray solutions of the herbicide combinations (Compound A or Compound B plus safener) were prepared by adding weighed amounts or aliquots of the safener to the stock solutions of Compound A or Compound B to form 12-mL spray solutions in two-way combinations.
# (§4) The spray solutions were applied to the plant material with an overhead Mandel track sprayer equipped with 8002E nozzles calibrated to deliver 187 L/ha over an application area of 0.503 square meters (m^2) at a spray height of 18 inches (43 centimeters (cm)) above the average plant canopy. Control plants were sprayed in the same manner with the solvent blank. All herbicide (component a) application rates are given as “g ae/ha” and all safener (component b) application rates are given as “g ai/ha.”
# (§5) The treated plants and control plants were placed in a greenhouse as described above and watered by sub-irrigation to prevent wash-off of the test compounds. After 20-22 d, the condition of the test plants as compared with that of the control plants was determined visually and scored on a scale of 0 to 100 percent where 0 corresponds to no injury and 100 corresponds to complete kill.
# [2] = tested on: ivyleaf morningglory (IPOHE, Ipomoea hederacea); assay: Greenhouse postemergence trial, visual injury on ivyleaf morningglory; settings: Table 19
# Text: as §1, §2
# as §3, with “combinations. […]” for “combinations.”
# as §5
# [3] = tested on: Chinese sprangletop (LEFCH, Leptochloa chinensis); assay: Greenhouse postemergence trial, visual injury on Chinese sprangletop; settings: Table 19
# Text: as §1, §2
# as §3, with “combinations. […]” for “combinations.”
# as §5
# [4] = tested on: Canada thistle (CIRAR, Cirsium arvense); assay: Greenhouse postemergence trial, visual injury on Canada thistle; settings: Table 19
# Text: as §1, §2
# as §3, with “combinations. […]” for “combinations.”
# as §5
# [5] = tested on: nutsedge (CYPES, Cyperus esculentus); assay: Greenhouse postemergence trial, visual injury on nutsedge
# Text: as §1, §2, §3, §4, §5
# [6] = tested on: barnyardgrass (ECHCG, Echinochloa crus-galli); assay: Greenhouse postemergence trial, visual injury on barnyardgrass; settings: Table 19
# Text: as §1, §2
# as §3, with “combinations. […]” for “combinations.”
# as §5
# [7] = tested on: soybean (GLXMA, Glycine max); assay: Greenhouse postemergence trial, visual injury on soybean; settings: Table 19
# Text: as §1, §2
# as §3, with “combinations. […]” for “combinations.”
# as §5
# [8] = tested on: large crabgrass (DIGSA, Digitaria sanguinalis); assay: Greenhouse postemergence trial, visual injury on large crabgrass; settings: Table 19
# Text: as §1, §2
# as §3, with “combinations. […]” for “combinations.”
# as §5
# [9] = tested on: Canada horseweed (ERICA, Erigeron canadensis); assay: Greenhouse postemergence trial, visual injury on Canada horseweed; settings: Table 19
# Text: as §1, §2
# as §3, with “combinations. […]” for “combinations.”
# as §5
# [10] = tested on: pigweed (AMARE, Amaranthus retroflexus); assay: Greenhouse postemergence trial, visual injury on pigweed
# Text: as §1, §2, §3, §4, §5
# [11] = tested on: wild pansy (VIOTR, Viola tricolor); assay: Greenhouse postemergence trial, visual injury on wild pansy; settings: Table 19
# Text: as §1, §2
# as §3, with “combinations. […]” for “combinations.”
# as §5
# [12] = tested on: Anthemis arvensis (field chamomile), ANTAR; assay: Greenhouse postemergence trial, visual injury on field chamomile
# Text: as §1, §2, §3, §4, §5
# [13] = tested on: common sunflower (HELAN, Helianthus annuus); assay: Greenhouse postemergence trial, visual injury on common sunflower
# Text: as §1, §2, §3, §4, §5
# [14] = tested on: common lambsquarters (CHEAL, Chenopodium album L.); assay: Greenhouse postemergence trial, visual injury on common lambsquarters; settings: Table 19
# Text: as §1, §2
# as §3, with “combinations. […]” for “combinations.”
# as §5
# [15] = Compound A 20 g/ha alone, Table 19
# [16] = Compound A 40 g/ha alone, Table 17
# [17] = Compound A 40 g/ha alone, Table 18
# [18] = CQC-mexyl 20 g/ha alone, Table 17
# [19] = CQC-mexyl 20 g/ha alone, Table 19
# [20] = CQC-mexyl 40 g/ha alone, Table 17
# [21] = CQC-mexyl 40 g/ha alone, Table 19
# [22] = CQC-mexyl 80 g/ha alone, Table 17
# [23] = CQC-mexyl 80 g/ha alone, Table 19
# [24] = CQC-mexyl 120 g/ha alone, Table 17
structure (smiles),measurement,setting,value
"N#CCOC(=O)c1nc(-c2ccc3cc[nH]c3c2F)c(F)c(N)c1Cl [Compound A, cyanomethyl 4-amino-3-chloro-5-fluoro-6-(7-fluoro-1H-indol-6-yl)pyridine-2-carboxylate]","% visual injury, Ob","[1]; Compound A 40 g/ha alone, Table 16",100%
same,"% visual injury, Ob",[1]; herbicide alone 40 g/ha,100%
same,"% visual injury, Ob",[2]; Compound A 20 g/ha alone,0%
same,"% visual injury, Ob",[3]; Compound A 20 g/ha alone,60%
same,"% visual injury, Ob",[4]; Compound A 20 g/ha alone,95%
same,"% visual injury, Ob",[5]; [15],30%
same,"% visual injury, Ob",[5]; [16],73%
same,"% visual injury, Ob",[5]; [17],73%
same,"% visual injury, Ob",[6]; Compound A 20 g/ha alone,85%
same,"% visual injury, Ob",[7]; Compound A 20 g/ha alone,100%
same,"% visual injury, Ob",[8]; Compound A 20 g/ha alone,30%
same,"% visual injury, Ob",[9]; Compound A 20 g/ha alone,95%
same,"% visual injury, Ob",[10]; [15],93%
same,"% visual injury, Ob",[10]; [16],100%
same,"% visual injury, Ob",[10]; [17],100%
same,"% visual injury, Ob",[11]; Compound A 20 g/ha alone,30%
same,"% visual injury, Ob","[12]; Compound A 20 g/ha alone, Table 15",95%
same,"% visual injury, Ob",[12]; herbicide alone 20 g/ha,95%
same,"% visual injury, Ob",[13]; [15],95%
same,"% visual injury, Ob",[13]; [16],100%
same,"% visual injury, Ob",[13]; [17],100%
same,"% visual injury, Ob",[14]; Compound A 20 g/ha alone,88%
"CCCCCC(C)OC(=O)COc1ccc(Cl)c2cccnc12 (stereo not drawn) [CQC-mexyl, cloquintocet-mexyl]","% visual injury, Ob","[1]; CQC-mexyl 10 g/ha alone, Table 16",0%
same,"% visual injury, Ob","[1]; CQC-mexyl 20 g/ha alone, Table 16",0%
same,"% visual injury, Ob","[1]; CQC-mexyl 40 g/ha alone, Table 16",0%
same,"% visual injury, Ob","[1]; CQC-mexyl 80 g/ha alone, Table 16",0%
same,"% visual injury, Ob",[2]; CQC-mexyl 20 g/ha alone,0%
same,"% visual injury, Ob",[2]; CQC-mexyl 40 g/ha alone,0%
same,"% visual injury, Ob",[2]; CQC-mexyl 80 g/ha alone,0%
same,"% visual injury, Ob",[3]; CQC-mexyl 20 g/ha alone,0%
same,"% visual injury, Ob",[3]; CQC-mexyl 40 g/ha alone,0%
same,"% visual injury, Ob",[3]; CQC-mexyl 80 g/ha alone,0%
same,"% visual injury, Ob",[4]; CQC-mexyl 20 g/ha alone,0%
same,"% visual injury, Ob",[4]; CQC-mexyl 40 g/ha alone,0%
same,"% visual injury, Ob",[4]; CQC-mexyl 80 g/ha alone,0%
same,"% visual injury, Ob",[5]; [18],0%
same,"% visual injury, Ob",[5]; [19],0%
same,"% visual injury, Ob",[5]; [20],0%
same,"% visual injury, Ob",[5]; [21],0%
same,"% visual injury, Ob",[5]; [22],0%
same,"% visual injury, Ob",[5]; [23],0%
same,"% visual injury, Ob",[5]; [24],0%
same,"% visual injury, Ob",[6]; CQC-mexyl 20 g/ha alone,0%
same,"% visual injury, Ob",[6]; CQC-mexyl 40 g/ha alone,0%
same,"% visual injury, Ob",[6]; CQC-mexyl 80 g/ha alone,0%
same,"% visual injury, Ob",[7]; CQC-mexyl 20 g/ha alone,0%
same,"% visual injury, Ob",[7]; CQC-mexyl 40 g/ha alone,0%
same,"% visual injury, Ob",[7]; CQC-mexyl 80 g/ha alone,0%
same,"% visual injury, Ob",[8]; CQC-mexyl 20 g/ha alone,0%
same,"% visual injury, Ob",[8]; CQC-mexyl 40 g/ha alone,0%
same,"% visual injury, Ob",[8]; CQC-mexyl 80 g/ha alone,0%
same,"% visual injury, Ob",[9]; CQC-mexyl 20 g/ha alone,0%
same,"% visual injury, Ob",[9]; CQC-mexyl 40 g/ha alone,0%
same,"% visual injury, Ob",[9]; CQC-mexyl 80 g/ha alone,0%
same,"% visual injury, Ob",[10]; [18],0%
same,"% visual injury, Ob",[10]; [19],0%
same,"% visual injury, Ob",[10]; [20],0%
same,"% visual injury, Ob",[10]; [21],0%
same,"% visual injury, Ob",[10]; [22],0%
same,"% visual injury, Ob",[10]; [23],0%
same,"% visual injury, Ob",[10]; [24],0%
same,"% visual injury, Ob",[11]; CQC-mexyl 20 g/ha alone,0%
same,"% visual injury, Ob",[11]; CQC-mexyl 40 g/ha alone,0%
same,"% visual injury, Ob",[11]; CQC-mexyl 80 g/ha alone,0%
same,"% visual injury, Ob","[12]; CQC-mexyl 5 g/ha alone, Table 15",0%
same,"% visual injury, Ob","[12]; CQC-mexyl 10 g/ha alone, Table 15",0%
same,"% visual injury, Ob","[12]; CQC-mexyl 20 g/ha alone, Table 15",0%
same,"% visual injury, Ob","[12]; CQC-mexyl 40 g/ha alone, Table 15",0%
same,"% visual injury, Ob",[13]; [18],0%
same,"% visual injury, Ob",[13]; [19],0%
same,"% visual injury, Ob",[13]; [20],0%
same,"% visual injury, Ob",[13]; [21],0%
same,"% visual injury, Ob",[13]; [22],0%
same,"% visual injury, Ob",[13]; [23],0%
same,"% visual injury, Ob",[13]; [24],0%
same,"% visual injury, Ob",[14]; CQC-mexyl 20 g/ha alone,0%
same,"% visual injury, Ob",[14]; CQC-mexyl 40 g/ha alone,0%
same,"% visual injury, Ob",[14]; CQC-mexyl 80 g/ha alone,0%
